Reference: patent US20070101445A1, “Transgenic mice carrying the HP-2 gene and uses as models for vascular diseases” (priority 2005, published 2007)

How the values were obtained:
Hp 0 mice = test: Chronic supplementation with vitamin E, renal hypertrophy in Hp 0 mice; format: in vivo, mouse
Experimental: (§1) Chronic supplementation with vitamin E. Wild-type or Hp 0 mice (n=5 in each group) were treated for 7 months with placebo (water) or vitamin E (Merck, racemic alpha-tocopherol acetate) at a concentration of 40 mg/kg/day administered daily in the drinking water from 4 weeks of age.
(§2) Preparation of renal tissue for morphometric and histochemical analysis. Mice were sacrificed with intraperitoneal injection of pentabarbitone sodium. Kidneys were excised and weighed and the half-middle portion was fixed in 4% buffered BP formaldehyde solution (Gadot, Netanya, Israel) and embedded in paraffin. For both the morphometric and histochemical analysis, there were four mice in each of the six groups (wild type, Hp 0, and Hp 2, with and without diabetes).
(§3) Statistical analysis. Values are reported as the mean±SEM. Comparisons between groups were performed using two-way ANOVA under a general linear model, with Hp phenotype as one factor and time, presence of diabetes, or treatment with vitamin E as the second factor. Pairwise comparisons were carried out using the Fisher's protected least significant difference (PLSD) test. A p-value of less than 0.05 was taken as being statistically significant. Statistical analyses were performed using the SPSS statistical software version 11.5 (Chicago, Ill.). […]

Wild-type mice = test: Chronic supplementation with vitamin E, renal mass in wild-type mice; format: in vivo, mouse; conditions: WT mice, 40 mg/kg/day vitamin E orally from 4 weeks, sacrificed at 8 months, mean±SEM, n=5
Experimental: as §1, §2, §3

CC(=O)Oc1c(C)c(C)c2c(c1C)CC[C@@](C)(CCC[C@H](C)CCC[C@H](C)CCCC(C)C)O2 (racemic) [Vitamin E, racemic alpha-tocopherol acetate]
RM/BM (renal mass normalized for body weight) (Hp 0 mice; 40 mg/kg/day vitamin E orally from 4 weeks, sacrificed at 8 months, mean±SEM, n=5): 11.01 ± 0.24 mg/g
renal mass in Hp 0 animals receiving vitamin E compared to Hp 0 mice who did not receive vitamin E (Hp 0 mice; vitamin E for 7 months): reduced
RM/BM (renal mass normalized for body weight) (Wild-type mice): 11.42 ± 0.98 mg/g
